Patent US20260139007A1, “EPHA4 ANTAGONISTS AND USES THEREOF” (SANFORD BURNHAM PREBYS MEDICAL DISCOVERY INSTITUTE, priority 2023, published 2026)
Several values for one entry are separate records, joined by “and”; a condition that tells them apart may be missing. Equal entries are not always repeated. Where two headings read alike, the source gives them in different places. Marks after values point to notes of the source that are not given here. One block for each molecule: values may come before it. Numbered stars: 1 amine (or outer) side, 2 acyl side, 3 side chain; on linkers, the order of the positions; unused ones are H or OH. Bridge positions count the residues as written; N and C are the ends. Square brackets hold non-standard residues; d marks the D form. Side chains are listed from the residue outwards. Peptide text beside a SMILES is read from it. * marks the point of attachment. γGlu = O=C(O)[C@H](CCC(=O)[*:2])N[*:1]; Palmitoyl = CCCCCCCCCCCCCCCC(=O)*; βAla = NCCC(=O)O

Tests used:
EphA4 Fc = test: ELISA measuring inhibition of ephrin-A5 AP binding to immobilized EphA4 Fc; set-up: species or system human or mouse
[1] = In vivo half-life: active compound remaining in mouse blood, deduced from apparent IC50 of plasma in the EphA4-ephrinA5 ELISA; settings: for half-life: in vivo, read-out: In vivo half-life (converted)
Experimental: To examine the persistence of compounds in the blood circulation, an approach was devised to determine the concentration of compound in mouse blood by taking advantage of the ELISA measuring inhibition of EphA4-ephrinA5 interaction.
Lipidated compounds dissolved in DMSO were diluted in […] PBS (to a 5% final DMSO concentration) or in […] PBS supplemented with 20 or 40 mg/mL BSA or 6.5 mM methyl-β-cyclodextrin for intravenous or intraperitoneal injection. Neutral pH of the compound solution was verified before injection. PEGylated compounds were dissolved in […] PBS before intraperitoneal injection. Peptides were sterile filtered before administration. Blood from each mouse was collected at 3 different time points after compound injection, the first 2 times by retro-orbital bleeding and the third time by terminal cardiac bleeding under deep anesthesia. Red blood cells were removed by centrifugation from blood treated with heparin and the resulting plasma was frozen in aliquots.
For each time point, a dose-response curves by measuring inhibition of EphA4-ephrinA5 binding at different plasma dilutions was obtained.

[2] = inhibition of ephrin-A5 AP binding to EphA4 Fc, averages of all experiments, read-out: IC50 ± SE (n) by ELISA
[3] = mouse, ip, mouse, IP (intraperitoneal administration)
[4] = mouse, iv, mouse, IV (intravenous administration)

Molecule: CCCCCCCCCCCCCCCC(=O)N[C@@H](CCC(=O)NCCCC[C@@H]1NC(=O)[C@H](Cc2ccc(O)cc2)NC(=O)[C@H](C(C)C)NC(=O)[C@@H](NC(=O)[C@H](Cc2ccc(O)cc2)NC(=O)[C@@H]2CCCN2C(=O)CCN)CSSC[C@@H](C(N)=O)NC(=O)[C@H](CO)NC(=O)[C@H](Cc2c[nH]c3ccccc23)NC(=O)[C@H](CO)NC(=O)CCNC1=O)C(=O)O [Compound 17, βAPYCVYK(palmitoyl-γE)BASWSC-NH2] (H-[βAla]PYCVYK([γGlu-Palmitoyl])[βAla]SWSC-NH2; disulfide 4-12)
IC50 (EphA4 Fc; [2]): 2300 nM

Molecule: CCCCCCCCCCCCCCCC(=O)N[C@@H](CCC(=O)NCCCC[C@H](NC(=O)CNC(=O)CNC(=O)[C@@H]1CSSC[C@H](NC(=O)[C@H](Cc2ccc(O)cc2)NC(=O)[C@@H]2CCCN2C(=O)CCN)C(=O)N[C@@H](C(C)C)C(=O)N[C@@H](Cc2ccc(O)cc2)C(=O)N[C@@H](CCCNC(=N)N)C(=O)NCCC(=O)N[C@@H](CO)C(=O)N[C@@H](Cc2c[nH]c3ccccc23)C(=O)N[C@@H](CO)C(=O)N1)C(=O)NCC(N)=O)C(=O)O [Compound 18]
half-life [1, 3]: 60 to 90 min | half-life [1, 4]: ~48 min | IC50 (EphA4 Fc; [2]): 520 ± 80 nM

Molecule: βAPYCVYRβASWSC-linker2-PEG (XPYCVYRXSWSCXXK; not fully specified; non-natural residues; cyclised or stapled) [APY-d3-PEG2]
potency compared with APY-d3 (EphA4 Fc; ELISA inhibition of EphA4-ephrin-A5 interaction): several fold less potent than non-PEGylated APY-d3 | IC50 (EphA4 Fc; ELISA inhibition of EphA4-ephrin-A5 interaction, read-out: IC50 (approximate)): ~80 nM

Results, then the molecule that gave them:

IC50 (EphA4 Fc; [2]): 49 ± 11 nM
Molecule: CCCCCCCCCCCC(=O)N[C@@H](CC(=O)NCCCC[C@H](NC(=O)CNC(=O)CNC(=O)[C@@H]1CSSC[C@H](NC(=O)[C@H](Cc2ccc(O)cc2)NC(=O)[C@@H]2CCCN2C(=O)CCN)C(=O)N[C@@H](C(C)C)C(=O)N[C@@H](Cc2ccc(O)cc2)C(=O)N[C@@H](CCCNC(=N)N)C(=O)NCCC(=O)N[C@@H](CO)C(=O)N[C@@H](Cc2c[nH]c3ccccc23)C(=O)N[C@@H](CO)C(=O)N1)C(=O)NCC(N)=O)C(=O)O [Compound 13]

FOLD INCREASE IN APPARENTIC IC COMPARED TO CONTROL ([1]; 0 minutes (control)): 1.0 fold | IC50 ([1]; 0 minutes: control, compound diluted in plasma in vitro): 81 nM | % PEPTIDE 14 REMAINING IN THE BLOOD ([1]; 0 minutes, ESTIMATED (all injected compound in 2.5 mL blood)): 100* % | FOLD INCREASE IN APPARENTIC IC COMPARED TO CONTROL ([1]; 60 minutes after intraperitoneal injection): 2.1 fold | % PEPTIDE 14 REMAINING IN THE BLOOD ([1]; 60 minutes after intraperitoneal injection, MEASURED): 48.2% | FOLD INCREASE IN APPARENTIC IC COMPARED TO CONTROL ([1]; 120 minutes after intraperitoneal injection): 5 fold and 4.6 fold | % PEPTIDE 14 REMAINING IN THE BLOOD ([1]; 120 minutes after intraperitoneal injection, MEASURED): 20% and 21.8% | FOLD INCREASE IN APPARENTIC IC COMPARED TO CONTROL ([1]; 240 minutes after intraperitoneal injection): 22.5 fold | % PEPTIDE 14 REMAINING IN THE BLOOD ([1]; 240 minutes after intraperitoneal injection, MEASURED): 4.5% | half-life [1, 3]: 30 to 60 min | half-life [1, 4]: 30 to 42 min | IC50 ([1]; plasma 60 minutes after intraperitoneal injection, mouse): 168 nM | IC50 ([1]; plasma 120 minutes after intraperitoneal injection, mouse): 371 nM | IC50 ([1]; plasma 240 minutes after intraperitoneal injection, mouse): 1820 nM | IC50 (EphA4 Fc; [2]): 52 ± 10 nM
Molecule: CCCCCCCCCCCC(=O)N[C@@H](CCC(=O)NCCCC[C@H](NC(=O)CNC(=O)CNC(=O)[C@@H]1CSSC[C@H](NC(=O)[C@H](Cc2ccc(O)cc2)NC(=O)[C@@H]2CCCN2C(=O)CCN)C(=O)N[C@@H](C(C)C)C(=O)N[C@@H](Cc2ccc(O)cc2)C(=O)N[C@@H](CCCNC(=N)N)C(=O)NCCC(=O)N[C@@H](CO)C(=O)N[C@@H](Cc2c[nH]c3ccccc23)C(=O)N[C@@H](CO)C(=O)N1)C(=O)NCC(N)=O)C(=O)O [Compound 14]

half-life [1, 3]: 60 to 90 min | half-life [1, 4]: ~48 min | less potent than compound 15 (EphA4 Fc): 5-6 fold | IC50 (EphA4 Fc; [2]): 160 ± 30 nM | better potency compared to compound 18 (single γGlu) (EphA4 Fc; two γGlu residues vs single γGlu, palmitoyl): ~3 fold
Molecule: CCCCCCCCCCCCCCCC(=O)N[C@@H](CCC(=O)N[C@@H](CCC(=O)NCCCC[C@H](NC(=O)CNC(=O)CNC(=O)[C@@H]1CSSC[C@H](NC(=O)[C@H](Cc2ccc(O)cc2)NC(=O)[C@@H]2CCCN2C(=O)CCN)C(=O)N[C@@H](C(C)C)C(=O)N[C@@H](Cc2ccc(O)cc2)C(=O)N[C@@H](CCCNC(=N)N)C(=O)NCCC(=O)N[C@@H](CO)C(=O)N[C@@H](Cc2c[nH]c3ccccc23)C(=O)N[C@@H](CO)C(=O)N1)C(=O)NCC(N)=O)C(=O)O)C(=O)O [Compound 19]

IC50 (EphA4 Fc; [2]): 190 ± 20 nM
Molecule: CCCCCCCCCCCCCCCC(=O)N[C@@H](CCC(=O)N[C@@H](CCC(=O)NCCCC[C@H](NC(=O)[C@H](CO)NC(=O)CNC(=O)CNC(=O)CNC(=O)[C@@H]1CSSC[C@H](NC(=O)[C@H](Cc2ccc(O)cc2)NC(=O)[C@@H]2CCCN2C(=O)CCN)C(=O)N[C@@H](C(C)C)C(=O)N[C@@H](Cc2ccc(O)cc2)C(=O)N[C@@H](CCCNC(=N)N)C(=O)NCCC(=O)N[C@@H](CO)C(=O)N[C@@H](Cc2c[nH]c3ccccc23)C(=O)N[C@@H](CO)C(=O)N1)C(=O)NCC(N)=O)C(=O)O)C(=O)O [Compound 20] (H-[βAla]PYCVYR[βAla]SWSCGGGSK([γGlu-γGlu-Palmitoyl])G-NH2; disulfide 4-12)
